Values of other authors, collected in patent US7253172B2, “Dipeptidyl peptidase inhibitors for the treatment of diabetes” (Merck & Co., Inc., priority 2001, dated 2007).
Values belong to the compound of their own block, whether it stands above or below them.

Tests used:
hematopoiesis = conditions: mouse, cyclophosphamide-induced neutropenia
cardiac allograft = conditions: rats; doubled from day 7 to day 14
DP-IV = target: T1, DP-IV (Homo sapiens, UniProt P27487)
T1 construct: GRF is rapidly degraded in plasma to GRF[3–44]
T1 sequence (P27487 39-766 limits assumed): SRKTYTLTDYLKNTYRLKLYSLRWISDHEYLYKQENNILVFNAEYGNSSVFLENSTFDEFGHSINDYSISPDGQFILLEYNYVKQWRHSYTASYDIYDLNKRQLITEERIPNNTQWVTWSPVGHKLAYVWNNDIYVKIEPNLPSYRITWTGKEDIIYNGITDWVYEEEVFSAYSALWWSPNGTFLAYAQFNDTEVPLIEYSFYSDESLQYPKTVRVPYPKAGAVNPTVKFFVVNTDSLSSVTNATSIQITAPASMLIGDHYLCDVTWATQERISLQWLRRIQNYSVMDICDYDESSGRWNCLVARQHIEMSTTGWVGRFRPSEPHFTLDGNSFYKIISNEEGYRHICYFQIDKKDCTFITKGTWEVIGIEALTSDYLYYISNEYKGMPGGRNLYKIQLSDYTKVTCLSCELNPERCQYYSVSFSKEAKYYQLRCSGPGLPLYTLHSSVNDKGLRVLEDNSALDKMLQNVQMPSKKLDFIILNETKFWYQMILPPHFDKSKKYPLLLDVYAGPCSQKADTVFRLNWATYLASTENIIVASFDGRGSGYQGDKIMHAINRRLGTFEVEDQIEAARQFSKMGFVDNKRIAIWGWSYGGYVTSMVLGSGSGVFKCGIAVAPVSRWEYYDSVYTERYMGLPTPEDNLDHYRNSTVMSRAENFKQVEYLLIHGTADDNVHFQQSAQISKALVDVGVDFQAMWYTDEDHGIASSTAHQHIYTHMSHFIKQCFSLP

Compound: CC(C)[C@H](N)C(=O)N1CCC[C@H]1B(O)O [Val-Boro-Pro]
hematopoiesis (hematopoiesis): stimulates hematopoiesis

Compound: CC(C)N1CCC(c2ccccc2)(c2ccccc2)CC1 [Prodipine, Pro-Pro-diphenyl-phosphonate]
cardiac allograft survival (cardiac allograft): 14 day

degradation of GRF in plasma to GRF[3–44] (DP-IV): prevented
Compound: diprotin A
